According to ChEMBL document CHEMBL1201862, “PubChem BioAssay data set” (2004):
Active and inactive are the calls of the source.

Tests used:
[1] = molecular target: T1, C-C chemokine receptor type 6 (Homo sapiens, UniProt P51684); test: antagonism of CCR6 beta-arrestin recruitment – cell-based, luminescent beta-arrestin readout, dose response (AID 504728); type: functional
T1 sequence (P51684 whole entry): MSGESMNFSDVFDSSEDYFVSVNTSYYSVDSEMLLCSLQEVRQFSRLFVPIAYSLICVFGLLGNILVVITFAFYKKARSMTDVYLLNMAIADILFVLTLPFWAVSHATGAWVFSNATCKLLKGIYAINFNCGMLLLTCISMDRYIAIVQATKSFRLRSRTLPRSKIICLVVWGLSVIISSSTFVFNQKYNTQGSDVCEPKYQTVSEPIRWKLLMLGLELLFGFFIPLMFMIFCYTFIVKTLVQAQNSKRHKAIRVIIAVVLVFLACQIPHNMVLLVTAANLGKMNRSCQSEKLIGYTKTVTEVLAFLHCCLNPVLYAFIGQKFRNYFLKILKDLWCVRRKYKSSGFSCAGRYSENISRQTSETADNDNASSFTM

[2] = tested on: Streptococcus; test: GAS UMAA2166 growth inhibition – luminescence, BacTiterGlo, counter-screen for streptokinase expression inhibitor project, dose response (AID 1915); type: functional, organism-based;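 further: potency for reduction of bacterial viability or growth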
[3] = molecular target: T2, Ubiquitin-conjugating enzyme E2 N (Homo sapiens, UniProt P61088); type: functional
T2 sequence (P61088 whole entry): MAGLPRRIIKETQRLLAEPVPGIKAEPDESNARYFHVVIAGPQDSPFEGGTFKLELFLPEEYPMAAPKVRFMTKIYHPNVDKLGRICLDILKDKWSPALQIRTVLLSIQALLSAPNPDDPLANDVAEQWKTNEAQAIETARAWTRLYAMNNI

[4] = Luminescence Cell-Based Dose Retest to Confirm Inhibitors of Cancer Stem Cells. [Related pubchem assays (depositor defined):AID2717, AID2721]; type: functional; details: Homo sapiens
[5] = tested on: Streptococcus sp. 'group A'; test: Streptococcus pyogenes SK(-)GAS viability under kanamycin – luminescence, BacTiterGlo, confirmation, counter-screen for streptokinase expression inhibitor project, dose response (AID 1900); type: functional, organism-based
[6] = molecular target: G-protein coupled receptor 55 (Homo sapiens, UniProt Q9Y2T6); test: inhibition of LPI-stimulated GPR55 beta-arrestin translocation – imaging, U2OS, beta-arrestin-GFP, LPI agonist, primary screen (AID 2013); type: functional;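 further: antagonist potency measured as reduced agonist-driven arrestin aggregation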
[7] = molecular target: T3, Streptokinase A (Streptococcus pyogenes serotype M1, UniProt P10520); test: viability-normalized secreted streptokinase activity reduction – plasminogen activation absorbance, OD405, dose response (AID 1914); type: functional, Streptococcus pyogenes M1 GAS;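 further: secreted streptokinase activity via plasminogen activation per viability signal from cell pellet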
T3 sequence (P10520 whole entry): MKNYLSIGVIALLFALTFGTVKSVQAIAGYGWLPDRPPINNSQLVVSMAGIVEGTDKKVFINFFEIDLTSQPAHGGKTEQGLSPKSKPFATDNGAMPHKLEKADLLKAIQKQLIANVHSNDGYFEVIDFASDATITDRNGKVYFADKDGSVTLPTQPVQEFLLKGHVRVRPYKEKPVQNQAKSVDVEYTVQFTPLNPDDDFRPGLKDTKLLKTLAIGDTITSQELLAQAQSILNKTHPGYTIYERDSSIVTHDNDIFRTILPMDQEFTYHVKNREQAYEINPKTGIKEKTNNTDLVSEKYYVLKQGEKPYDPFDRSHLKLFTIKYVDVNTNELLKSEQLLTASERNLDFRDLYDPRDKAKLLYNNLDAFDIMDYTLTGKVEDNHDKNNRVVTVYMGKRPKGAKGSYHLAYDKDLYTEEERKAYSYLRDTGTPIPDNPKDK

[8] = molecular target: Beta-galactosidase (Escherichia coli, UniProt Q8VNN2); test: detection-enzyme interference by beta-gal modulators – biochemical, E. coli enzyme, set 3, artefact control for CCR6 antagonist project, dose response (AID 504712); type: functional
[9] = molecular target: T4, Type-1 angiotensin II receptor (Homo sapiens, UniProt P30556); test: agonist activity at AGTR1 – cell-based, uHTS hits, selectivity assay for APJ receptor agonist project, dose response (AID 488865); type: functional;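 further: beta-arrestin recruitment to AT1 measured by enzyme fragment complementation luminescence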
T4 sequence (P30556 whole entry): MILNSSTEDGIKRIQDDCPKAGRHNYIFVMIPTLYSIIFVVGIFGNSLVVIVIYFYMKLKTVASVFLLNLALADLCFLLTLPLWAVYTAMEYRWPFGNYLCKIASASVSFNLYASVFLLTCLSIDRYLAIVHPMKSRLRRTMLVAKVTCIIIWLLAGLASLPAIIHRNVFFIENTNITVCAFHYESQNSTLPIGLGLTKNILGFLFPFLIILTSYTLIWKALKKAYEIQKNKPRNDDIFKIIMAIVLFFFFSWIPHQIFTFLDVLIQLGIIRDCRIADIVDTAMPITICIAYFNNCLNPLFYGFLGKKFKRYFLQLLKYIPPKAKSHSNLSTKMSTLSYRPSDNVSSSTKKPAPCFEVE

[10] = molecular target: T2, Ubiquitin-conjugating enzyme E2 N; type: functional; remark: listed apart in the source
[11] = molecular target: T5, Bcl-2-related protein A1 (Mus musculus, UniProt Q07440); type: functional;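 further: confirmatory dose–response counterscreen on Bfl-1, used to check hits from a UBC13 polyubiquitin inhibitor campaign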
T5 sequence (Q07440 whole entry): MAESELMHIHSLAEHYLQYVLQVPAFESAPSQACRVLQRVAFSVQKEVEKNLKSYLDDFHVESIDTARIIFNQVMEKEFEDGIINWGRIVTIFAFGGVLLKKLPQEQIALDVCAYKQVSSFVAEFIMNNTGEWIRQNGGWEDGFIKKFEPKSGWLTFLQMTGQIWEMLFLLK

[12] = molecular target: Integrin alpha-4 (Homo sapiens, UniProt P13612); test: allosteric modulators of alpha4 integrin VLA-4 – cell-based, LIBS antibody binding, flow cytometry, SAR follow-up (AID 488791); type: functional
[13] = molecular target: Melanocortin receptor 4 (Homo sapiens, UniProt P32245); type: functional, cell-based;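 further: Cell-based assay with luminescence read-out, confirmatory dose-response testing for agonist activity of biased ligands at MC4R; human U2OS cells with tagged receptor and beta-arrestin; potency of agonists that increase receptor coupling to beta-arrestin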
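Wherever AC50 is given: cells exposed to compound for roughly 70 hours or longer before luminescence read.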

Beta-galactosidase, sequence (Q8VNN2 whole entry, the tested form may be a part): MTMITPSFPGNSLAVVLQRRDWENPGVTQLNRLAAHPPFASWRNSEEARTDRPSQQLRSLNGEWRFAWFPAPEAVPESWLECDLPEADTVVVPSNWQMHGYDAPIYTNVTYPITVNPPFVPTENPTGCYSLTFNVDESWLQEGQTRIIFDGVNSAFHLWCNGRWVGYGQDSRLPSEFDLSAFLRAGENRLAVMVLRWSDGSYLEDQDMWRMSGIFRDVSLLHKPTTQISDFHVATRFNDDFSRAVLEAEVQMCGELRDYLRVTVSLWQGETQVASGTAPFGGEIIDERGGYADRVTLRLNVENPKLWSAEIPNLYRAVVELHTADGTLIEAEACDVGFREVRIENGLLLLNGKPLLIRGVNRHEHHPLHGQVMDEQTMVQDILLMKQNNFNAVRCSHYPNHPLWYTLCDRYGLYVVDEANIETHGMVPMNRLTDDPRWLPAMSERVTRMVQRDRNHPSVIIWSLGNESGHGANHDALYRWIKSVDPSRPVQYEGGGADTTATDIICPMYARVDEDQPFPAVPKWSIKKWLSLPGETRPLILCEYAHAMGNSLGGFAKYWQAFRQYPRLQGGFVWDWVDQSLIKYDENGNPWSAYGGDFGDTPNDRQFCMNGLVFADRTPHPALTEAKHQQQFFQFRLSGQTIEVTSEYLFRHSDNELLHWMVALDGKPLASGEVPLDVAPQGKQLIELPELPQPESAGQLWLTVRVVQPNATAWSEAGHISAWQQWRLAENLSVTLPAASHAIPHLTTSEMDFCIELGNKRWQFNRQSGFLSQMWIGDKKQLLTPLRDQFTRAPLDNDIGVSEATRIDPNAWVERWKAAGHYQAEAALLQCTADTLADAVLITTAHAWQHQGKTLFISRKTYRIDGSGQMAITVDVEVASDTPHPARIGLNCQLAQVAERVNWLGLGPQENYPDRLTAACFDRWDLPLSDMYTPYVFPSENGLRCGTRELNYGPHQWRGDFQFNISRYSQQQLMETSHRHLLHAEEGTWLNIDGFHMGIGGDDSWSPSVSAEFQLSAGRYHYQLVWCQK
Melanocortin receptor 4, sequence (P32245 whole entry): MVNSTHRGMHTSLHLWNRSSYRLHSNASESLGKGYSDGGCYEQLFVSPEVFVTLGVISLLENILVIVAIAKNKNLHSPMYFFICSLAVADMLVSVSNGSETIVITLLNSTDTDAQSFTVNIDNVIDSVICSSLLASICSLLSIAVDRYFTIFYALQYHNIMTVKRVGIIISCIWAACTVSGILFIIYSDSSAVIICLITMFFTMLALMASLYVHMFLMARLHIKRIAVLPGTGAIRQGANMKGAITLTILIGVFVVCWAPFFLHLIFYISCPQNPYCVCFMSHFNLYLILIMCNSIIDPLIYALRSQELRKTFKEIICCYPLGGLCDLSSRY
G-protein coupled receptor 55, sequence (Q9Y2T6 whole entry): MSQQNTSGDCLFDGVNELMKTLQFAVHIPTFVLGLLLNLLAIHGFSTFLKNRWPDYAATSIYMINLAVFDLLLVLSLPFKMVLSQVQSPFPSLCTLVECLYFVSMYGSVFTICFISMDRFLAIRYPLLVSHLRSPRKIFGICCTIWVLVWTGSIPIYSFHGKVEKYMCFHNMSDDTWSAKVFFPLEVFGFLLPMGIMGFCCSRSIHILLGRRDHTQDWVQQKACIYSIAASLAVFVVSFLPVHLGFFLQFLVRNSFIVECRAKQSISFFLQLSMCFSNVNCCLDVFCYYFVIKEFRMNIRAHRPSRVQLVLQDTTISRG
Integrin alpha-4, sequence (P13612 whole entry): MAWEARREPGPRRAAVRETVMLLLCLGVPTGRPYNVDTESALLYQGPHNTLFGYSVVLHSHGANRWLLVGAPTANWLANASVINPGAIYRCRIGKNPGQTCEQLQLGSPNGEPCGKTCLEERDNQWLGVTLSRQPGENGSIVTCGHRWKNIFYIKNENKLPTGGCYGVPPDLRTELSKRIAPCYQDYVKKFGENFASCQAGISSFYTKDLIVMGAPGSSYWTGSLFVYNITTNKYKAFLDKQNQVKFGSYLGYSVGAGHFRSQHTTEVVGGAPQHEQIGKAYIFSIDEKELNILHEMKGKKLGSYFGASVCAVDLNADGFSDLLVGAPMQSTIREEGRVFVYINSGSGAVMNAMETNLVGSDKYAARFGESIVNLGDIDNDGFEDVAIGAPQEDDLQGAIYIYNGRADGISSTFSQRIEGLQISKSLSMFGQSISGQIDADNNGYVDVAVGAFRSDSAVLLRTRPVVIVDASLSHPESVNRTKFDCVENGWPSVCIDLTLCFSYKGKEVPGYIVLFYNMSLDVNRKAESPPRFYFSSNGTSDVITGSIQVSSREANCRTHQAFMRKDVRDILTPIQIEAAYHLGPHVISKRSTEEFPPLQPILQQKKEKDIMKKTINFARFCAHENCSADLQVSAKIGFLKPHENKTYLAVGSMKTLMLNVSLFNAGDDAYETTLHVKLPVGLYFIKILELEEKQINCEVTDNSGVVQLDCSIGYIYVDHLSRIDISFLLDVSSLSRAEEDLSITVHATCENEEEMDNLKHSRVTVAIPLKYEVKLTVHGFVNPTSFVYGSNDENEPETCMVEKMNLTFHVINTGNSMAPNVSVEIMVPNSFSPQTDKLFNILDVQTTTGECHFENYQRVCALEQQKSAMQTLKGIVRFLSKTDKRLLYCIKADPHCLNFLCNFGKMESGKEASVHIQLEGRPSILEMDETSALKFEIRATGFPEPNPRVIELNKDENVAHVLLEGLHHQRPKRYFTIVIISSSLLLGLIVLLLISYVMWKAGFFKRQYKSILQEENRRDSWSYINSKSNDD

Row | SMILES | IC50 [1] | EC50 [2] | IC50 [3] | AC50 [4] | EC50 [5] | IC50 [6] | EC50 [7] | IC50 [8] | EC50 [9] | IC50 [10] | IC50 [11] | EC50 [12] | EC50 [13]
1 | Cc1c(CCOC(=O)C2C3CC4CC(C3)CC2C4)sc[n+]1CC(=O)c1ccc(Br)cc1 (stereo not given) | 27 µM (inactive) | > 150 µM (not active) | > 20 µM (inactive) | 2.17 µM (active) | 8.85 µM (active) | 3.25 µM (active) | 21.9 µM (active) | > 66.6 µM (inactive) |  |  |  |  | 
2 | CCOc1ccc2nc(N(CCCN(C)C)C(=O)c3ccc(S(=O)(=O)N4CCc5ccccc5C4)cc3)sc2c1 |  |  | 6.95 µM (active) |  |  |  |  |  | > 100 µM (inactive) | 5.52 µM (active) | > 20 µM (inactive) |  | 
3 | c1ccc(-c2sc3ccccc3c2-c2ccc(OCCN3CCCC3)cc2)cc1 |  |  |  | 2.21 µM (active) |  |  |  |  |  |  |  | 26.1 µM (active) | > 89.2 µM (inactive)
